Reference: patent US8940497B2, “Enzyme regulating ether lipid signaling pathways” (The Scripps Research Institute, priority 2006, dated 2015)

Test system: background 2-thioacetyl MAGE hydrolyzing activity in membrane proteomes
Experiment: Background 2-thioacetyl MAGE hydrolyzing activity in membrane proteomes
Type: biochemical
Settings: FIG. 14
Protocol: KIAA1363-transfected cell lines were used for substrate-based enzyme activity assays. Membrane proteomes were adjusted to 0.5 mg/ml in 50 mM tris pH 7.4 buffer containing 5 mM CHAPS detergent. Immediately prior to the assay, 5,5′-dithiobis-(2-nitrobenzoic acid) (DTNB, Sigma) was added at 0.5 mM to the membrane proteome to prepare the Assay Buffer. For analysis of inhibitors, 1 ul of a 50× inhibitor solution in DMSO was added to 48 ul of Assay Buffer and preincubated for 20 min at RT. The substrate 2-thioacetyl MAGE (Cayman Chemical) was prepared by evaporating off the original solvent under nitrogen and redissolving the residue in DMSO. 1 ul of 5 mM 2-thioacetyl MAGE stock is added to each assay well to begin the assay. Absorbance is determined at A405 nm.
The background 2-thioacetyl MAGE hydrolyzing activity in membrane proteomes that is not inhibited by AS-115 is inhibited by the broad serine protease inhibitor PMSF (FIG. 14). The IC50 of AS-115 was measured using the 2-thioacetyl MAGE substrate-based assay with Flag-KIAA1363/293T cell membrane proteome (FIG. 15).

SMILES: O=S(=O)(F)Cc1ccccc1 [PMSF, reference compound]
- Background 2-thioacetyl MAGE hydrolyzing activity: inhibited
